The target in test [1] is T1, His tagged PTPN2 (TC45) protein (Homo sapiens, UniProt P17706).
T1 construct: made in house
T1 sequence (P17706 with tags, fused parts or gaps isoform P17706-2): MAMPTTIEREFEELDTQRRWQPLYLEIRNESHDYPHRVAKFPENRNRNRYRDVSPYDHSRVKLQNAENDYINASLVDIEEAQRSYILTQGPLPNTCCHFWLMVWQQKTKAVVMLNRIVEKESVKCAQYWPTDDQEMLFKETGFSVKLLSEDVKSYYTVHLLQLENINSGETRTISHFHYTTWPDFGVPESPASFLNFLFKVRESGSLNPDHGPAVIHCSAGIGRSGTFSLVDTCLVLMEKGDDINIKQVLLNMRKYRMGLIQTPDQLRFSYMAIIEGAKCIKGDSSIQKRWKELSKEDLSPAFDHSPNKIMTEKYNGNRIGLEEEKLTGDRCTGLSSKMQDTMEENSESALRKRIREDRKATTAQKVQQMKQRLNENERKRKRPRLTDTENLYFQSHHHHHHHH
In words: Mobility shift assay (MSA) to determine potency of PTPN2 inhibitors. The format is biochemical. To be noted: 0.5 nM enzyme, 2 μM substrate. How it is done: Compound activity was determined using in house His tagged PTPN2 (TC45) protein (SEQ ID NO: 1) in an in vitro enzymatic reaction. The enzymatic assay used to determine activity was a mobility shift assay using a LabChip EZ Reader by Caliper Life Sciences. The enzymatic reaction was carried out in assay buffer (50 mM HEPES pH 7.5, 1 mM EGTA, 10 mM EDTA, 0.01% Tween® 20, and 2 mM DTT). The compounds were dispensed on a white 384 well ProxiPlate™ (PerkinElmer Catalog #6008289) plate using the Labcyte Echo at varying concentrations (12 point, 1:3 dilution). The enzyme (at 0.5 nM) was incubated with compound for 10 minutes at room temperature. Then the substrate (phosphorylated insulin receptor probe sequence: ((OG488)-(NH—CH2—CH2—O—CH2—CH2—O—CH2—CO)-T-R-D-I-(PY)-E-T-D-Y—Y—R—K—K—NH2) (SEQ ID NO: 2) was added at 2 μM to the plates and incubated for another 10 minutes at room temperature. Finally, a quench solution (water and 4-bromo-3-(2-oxo-2-propoxyethoxy)-5-(3-{[1-(phenylmethanesulfonyl)piperidin-4-yl]amino}phenyl)thiophene-2-carboxylic acid) was added to the plates, which were then run on the EZ Reader (excitation 488 nm, emission 530 nm) to measure % conversion (the amount of phosphorylated substrate which was de-phosphorylated by PTPN2). […] The % inhibition was then used to calculate the IC50 values.

The target in test [2] is T2, His tagged full-length PTPN1 protein (Homo sapiens, UniProt P18031).
T2 construct: made in house
T2 sequence (P18031 with tags, fused parts or gaps): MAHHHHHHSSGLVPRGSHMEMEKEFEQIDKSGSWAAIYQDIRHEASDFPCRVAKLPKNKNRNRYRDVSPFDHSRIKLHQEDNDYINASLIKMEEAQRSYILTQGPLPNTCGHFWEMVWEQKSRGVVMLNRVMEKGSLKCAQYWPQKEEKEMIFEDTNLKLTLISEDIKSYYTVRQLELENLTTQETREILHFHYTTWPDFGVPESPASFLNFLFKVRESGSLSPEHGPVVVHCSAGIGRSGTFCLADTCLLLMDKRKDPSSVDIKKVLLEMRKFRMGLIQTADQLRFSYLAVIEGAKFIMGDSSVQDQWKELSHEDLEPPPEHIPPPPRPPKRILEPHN
Nature of the test: Mobility shift assay (MSA) to determine potency of PTPN1 inhibitors. The conditions noted are these: 0.5 nM enzyme, 2 μM substrate. The class given is biochemical. How it is done: Compound activity was determined using in house His tagged full-length PTPN1 protein (SEQ ID NO: 3) in an in vitro enzymatic reaction. The enzymatic assay used to determine activity is a mobility shift assay using a LabChip EZ Reader by Caliper Life Sciences. The enzymatic reaction was carried out in assay buffer (50 mM HEPES pH 7.5, 1 mM EGTA, 10 mM EDTA. 0.01% Tween® 20, and 2 mM DTT). The compounds were dispensed on a white 384 well ProxiPlate™ (PerkinElmer Cat #6008289) plate using a Labcyte Echo® liquid handler at varying concentrations (12 point, 1:3 dilution). The enzyme (at 0.5 nM) was incubated with compound for 10 minutes at room temperature. Then the substrate (phosphorylated insulin receptor probe sequence: ((OG488)-(NH—CH2—CH2—O—CH2—CH2—O—CH2—CO)-T-R-D-I-(PY)-E-T-D-Y—Y—R—K—K—NH2) (SEQ ID NO: 2) was added at 2 μM to the plates and incubated for another 10 minutes at room temperature. Finally, a quench solution (water and 4-bromo-3-(2-oxo-2-propoxyethoxy)-5-(3-{[1-(phenylmethanesulfonyl)piperidin-4-yl]amino}phenyl)thiophene-2-carboxylic acid) was added to the plates, which were then run on the EZ Reader (excitation 488 nm, emission 530 nm) to measure % conversion (the amount of phosphorylated substrate which was de-phosphorylated by PTPN1). […] The % inhibition was then used to calculate the IC50 values.

Bounds are passed on as bounds.

This is an account of results in patent US20250122160A1, “PROTEIN TYROSINE PHOSPHATASE INHIBITORS AND METHODS OF USE THEREOF” (Calico Life Sciences LLC, priority 0001, published 2025).

Broadly, the IC50 is the concentration that inhibits the measured activity by half. For `CC(C)CNCC1(O)CCc2cc(O)c(N3CC(=O)NS3(=O)=O)c(F)c2C1` (stereo not shown) [Compound 339, 5-(1-fluoro-3,7-dihydroxy-7-{[(2-methylpropyl)amino]methyl}-5,6,7,8-tetrahydronaphthalen-2-yl)-1λ^6,2,5-thiadiazolidine-1,1,3-trione], the IC50 in test [1] and in test [2] was 10 to 100 nM throughout.
Turning to `O=C1CN(c2c(O)cc3c(c2F)CN(CCCc2cccnc2)CC3)S(=O)(=O)N1` [Compound 207], the IC50 in test [1] and in test [2] was 10 to 100 nM in each case.
On to `[2H]C([2H])([2H])C([2H])([2H])C([2H])([2H])C([2H])([2H])NC1CCc2cc(O)c(N3CC(=O)NS3(=O)=O)c(F)c2C1` (stereo not shown) [Compound 336, 5-{7-[(^2H9)butylamino]-1-fluoro-3-hydroxy-5,6,7,8-tetrahydronaphthalen-2-yl}-1λ^6,2,5-thiadiazolidine-1,1,3-trione], for which the IC50 in test [1] and in test [2] was 1 to 10 nM each time.
With `CC(O)CCN[C@@H]1CCc2cc(O)c(N3CC(=O)NS3(=O)=O)c(F)c2C1` (stereo partly drawn) [Compound 369, 5-{(7R)-1-fluoro-3-hydroxy-7-[(3-hydroxybutyl)amino]-5,6,7,8-tetrahydronaphthalen-2-yl}-1λ^6,2,5-thiadiazolidine-1,1,3-trione], the IC50 in test [1] fell in the range of 1 to 10 nM; in test [2], 10 to 100 nM.
As for `N[C@H](CCC1CCCCC1)C(=O)N1CCc2cc(O)c(N3CC(=O)NS3(=O)=O)c(F)c2C1` [Compound 250], the IC50 in test [1] and in test [2] was 10 to 100 nM each time.
As to `CC(=O)N[C@@H]1CCc2cc(O)c(N3CC(=O)NS3(=O)=O)c(F)c2C1` [Compound 402, N-[(2R)-8-fluoro-6-hydroxy-7-(1,1,4-trioxo-1λ^6,2,5-thiadiazolidin-2-yl)-1,2,3,4-tetrahydronaphthalen-2-yl]acetamide], the IC50 in test [1] and in test [2] was over 100 nM in each case.
Turning to `O=C1CN(c2c(O)cc3c(c2F)CC(NCCC2COC2)CC3)S(=O)(=O)N1` (stereo not shown) [Compound 330, 5-(1-fluoro-3-hydroxy-7-{[2-(oxetan-3-yl)ethyl]amino}-5,6,7,8-tetrahydronaphthalen-2-yl)-1λ^6,2,5-thiadiazolidine-1,1,3-trione], the IC50 in test [1] and in test [2] was over 100 nM each time.
Take `CC(C)CNC(=N)N1CCc2cc(O)c(N3CC(=O)NS3(=O)=O)c(F)c2C1` [Compound 329, 8-fluoro-6-hydroxy-N-(2-methylpropyl)-7-(1,1,4-trioxo-1λ^6,2,5-thiadiazolidin-2-yl)-3,4-dihydroisoquinoline-2(1H)-carboximidamide]: the IC50 in test [1] and in test [2] was 10 to 100 nM in each case.
Turning to `O=C1CN(c2c(O)cc3c(c2F)CN(C(=O)NCCC2CC2)CC3)S(=O)(=O)N1` [Compound 264], the IC50 in test [1] and in test [2] was 10 to 100 nM throughout.
Turning to `CC(C)CCN[C@@H]1COc2cc(O)c(N3CC(=O)NS3(=O)=O)c(F)c2C1` [Compound 372, 5-{(3S)-5-fluoro-7-hydroxy-3-[(3-methylbutyl)amino]-3,4-dihydro-2H-1-benzopyran-6-yl}-1λ^6,2,5-thiadiazolidine-1,1,3-trione], the IC50 in test [1] and in test [2] was 10 to 100 nM each time.
Take `CC(C)(C)OC(=O)NCC1CCc2cc(O)c(N3CC(=O)NS3(=O)=O)c(F)c2C1` (stereo not shown) [Compound 391, tert-butyl {[8-fluoro-6-hydroxy-7-(1,1,4-trioxo-1λ^6,2,5-thiadiazolidin-2-yl)-1,2,3,4-tetrahydronaphthalen-2-yl]methyl}carbamate]: the IC50 in test [1] and in test [2] was 10 to 100 nM each time.
Consider `O=C1CN(c2c(O)cc3c(c2F)CN(CCCCCC(F)(F)F)CC3)S(=O)(=O)N1` [Compound 161], for which the IC50 in test [1] was 1 to 10 nM; in test [2], 10 to 100 nM.
In the same order, the values of `O=C1CN(c2c(O)cc3c(c2F)C[C@H](NCCC2CC(F)(F)C2)CC3)S(=O)(=O)N1` [Compound 202] are under 1 nM and 1 to 10 nM.
On to `O=C1CN(c2c(O)cc3c(c2F)C(=O)NCC3)S(=O)(=O)N1` [Compound 388, 5-(8-fluoro-6-hydroxy-1-oxo-1,2,3,4-tetrahydroisoquinolin-7-yl)-1λ^6,2,5-thiadiazolidine-1,1,3-trione], for which the IC50 in test [1] and in test [2] was over 100 nM throughout.
As for `O=C1CN(c2c(O)cc3c(c2F)CN(CC2CNC2)CC3)S(=O)(=O)N1` [Compound 165], the IC50 in test [1] and in test [2] was 10 to 100 nM throughout.
As for `Cc1nn(CCCC(C)(C)C#N)c(C)c1CN1CCc2cc(O)c(N3CC(=O)NS3(=O)=O)c(F)c2C1` [Compound 227], the 50% inhibitory concentration (IC50) in test [1] and in test [2] was over 100 nM each time.
Turning to `O=C1CN(c2c(O)cc3c(c2F)CN(CCCC2CC2)CC3)S(=O)(=O)N1` [Compound 159], the IC50 in test [1] and in test [2] was 10 to 100 nM throughout.
Consider `O=C1CN(c2c(O)cc3c(c2F)CCCC3)S(=O)(=O)N1` [Compound 108], for which the IC50 in test [1] and in test [2] was 10 to 100 nM each time.
Turning to `CC(C)(C)CNC(=O)N1CCc2cc(O)c(N3CC(=O)NS3(=O)=O)c(F)c2C1` [Compound 277], the IC50 in test [1] is 1 to 10 nM; in test [2], 10 to 100 nM.
In the same order, the values of `O=C1CN(c2c(O)cc3c(c2F)C[C@H](NCCCOCC(F)F)CO3)S(=O)(=O)N1` [Compound 379, 5-[(3S)-3-{[3-(2,2-difluoroethoxy)propyl]amino}-5-fluoro-7-hydroxy-3,4-dihydro-2H-1-benzopyran-6-yl]-1λ^6,2,5-thiadiazolidine-1,1,3-trione] are 10 to 100 nM and 10 to 100 nM.
The matching figures for `Cn1cncc1CN[C@@H]1CCc2cc(O)c(N3CC(=O)NS3(=O)=O)c(F)c2C1` [Compound 357, 5-[(7R)-1-fluoro-3-hydroxy-7-{[(1-methyl-1H-imidazol-5-yl)methyl]amino}-5,6,7,8-tetrahydronaphthalen-2-yl]-1λ^6,2,5-thiadiazolidine-1,1,3-trione]: 10 to 100 nM and 10 to 100 nM.
In the case of `O=C1CN(c2c(O)cc3c(c2F)C[C@H](NCCC2CCOCC2)CO3)S(=O)(=O)N1` [Compound 375, 5-[(3S)-5-fluoro-7-hydroxy-3-{[2-(oxan-4-yl)ethyl]amino}-3,4-dihydro-2H-1-benzopyran-6-yl]-1λ^6,2,5-thiadiazolidine-1,1,3-trione], the IC50 in test [1] and in test [2] was 10 to 100 nM throughout.
For the compound `CC(C)(C)c1ccc(CCCN2CCc3cc(O)c(N4CC(=O)NS4(=O)=O)c(F)c3C2)cc1` [Compound 301], the IC50 in test [1] was 10 to 100 nM; in test [2], over 100 nM.
Regarding `Cc1n[nH]c(C)c1CCN1Cc2c(cc(O)c(N3CC(=O)NS3(=O)=O)c2F)C(F)(F)C1` [Compound 320], the half-inhibitory concentration (IC50) in test [1] and in test [2] was over 100 nM each time.
As for `Cc1noc(C)c1CN1CCc2cc(O)c(N3CC(=O)NS3(=O)=O)c(F)c2C1` [Compound 208], the IC50 in test [1] and in test [2] was 10 to 100 nM in each case.
Take `CC(C)C1CN(C2CCc3cc(O)c(N4CC(=O)NS4(=O)=O)c(F)c3C2)CCO1` (stereo not shown) [Compound 181]: the IC50 in test [1] and in test [2] was 1 to 10 nM in each case.
